Laboratory results: US12661410B2, “Compounds for targeted degradation of RET” (C4 Therapeutics, Inc., priority 2020, dated 2026)
Residue numbers refer to the chain shown, from its start. Read-outs that look alike come from different tables or passages of the source.

What was measured:
[1] = target: T1, RET (658-1114) (Homo sapiens, UniProt P07949); experiment: HiBiT-Degradation, RET wild-type degradation assay (Nano-Glo HiBiT Lytic), 293T.144 cells; format: cell-based; settings: for DC50 / Emax: 6.0 hours; for DC50: read-out: 293T.144 RET (658-1114) 6.0 hours (DC50); for Emax: read-out: 293T.144 RET (658-1114) 6.0 hours (Emax)
T1 construct: 658-1114; expressed in transfected cells; host or cells: 293T.144 (293T cells, generated in-house)
T1 sequence (P07949 658-1114): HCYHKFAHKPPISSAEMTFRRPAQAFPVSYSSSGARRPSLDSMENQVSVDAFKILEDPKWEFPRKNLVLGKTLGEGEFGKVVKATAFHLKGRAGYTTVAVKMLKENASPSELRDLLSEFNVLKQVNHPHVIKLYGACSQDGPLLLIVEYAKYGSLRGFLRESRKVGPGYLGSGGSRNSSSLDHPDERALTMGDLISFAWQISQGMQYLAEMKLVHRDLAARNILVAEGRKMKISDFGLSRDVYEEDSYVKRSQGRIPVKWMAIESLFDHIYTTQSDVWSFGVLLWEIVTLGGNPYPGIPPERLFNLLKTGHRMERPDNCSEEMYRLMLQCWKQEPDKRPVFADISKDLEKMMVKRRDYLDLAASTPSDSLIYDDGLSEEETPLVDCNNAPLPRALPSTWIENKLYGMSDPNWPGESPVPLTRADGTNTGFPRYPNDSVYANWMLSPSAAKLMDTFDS
Outline: (§1)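 HEK293T lines expressing HiBiT-tagged RET kinase domain, wild-type (293T.144) or G810R (293T.165), treated 6 h in duplicate, 11-point half-log series from 10 μM top. Lytic HiBiT luminescence read; DC50 and Emax (% protein remaining) from dose-response curves.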

[2] = target: T2, RET(KD: 658-1114 G810R) (Homo sapiens, UniProt P07949, G810R); experiment: HiBiT-Degradation, RET G810R degradation assay (Nano-Glo HiBiT Lytic), 293T.165 cells; format: cell-based; settings: for Emax / DC50: 6.0 hours; for Emax: % remaining protein, read-out: 293T.165 RET(KD: 658-1114 G810R) 6.0 hours (Emax); for DC50: read-out: 293T.165 RET(KD: 658-1114 G810R) 6.0 hours (DC50)
T2 construct: 658-1114; expressed in transfected cells; host or cells: 293T.165 (293T cells, generated in-house)
T2 sequence (P07949 658-1114 G810R): T1 sequence (P07949 658-1114) with G153R
Outline: as §1

[3] = half-maximal degradation concentration

Compound | 293T.144 RET (658-1114) 6.0 hours (IP) [nM] ([1]; HiBiT-Degradation) | DC50 ([1]; HiBiT-Degradation) [nM] | Emax ([1]; HiBiT-Degradation) [%] | Emax [2] [%] | DC50 [2, 3] [nM] | 293T.165 RET(KD: 658-1114 G810R) 6.0 hours (Emax) ([2]; HiBiT-Degradation) | 293T.165 RET(KD: 658-1114 G810R) 6.0 hours (IP) [nM] ([2]; HiBiT-Degradation) | DC50 ([2]; HiBiT-Degradation) [nM] | 293T.144 RET (658-1114) 6.0 hours (IP) [nM] [1] | Emax ([1]; % remaining protein) [%] | DC50 [1, 3] [nM] | 293T.165 RET(KD: 658-1114 G810R) 6.0 hours (IP) [nM] [2]
CCC1(C(=O)NC(C)C)CCN(c2ccc(-c3nc(-c4cnn(C5CCN(C(=O)CN6C7CCC6CC(c6ccc(NC8CCC(=O)NC8=O)cc6)C7)CC5)c4)cn4ncc(C#N)c34)cn2)CC1 (centres unmarked) [Compound 9, 1-[5-[3-cyano-6-[1-[1-[2-[3-[4-[(2,6-dioxo-3-piperidyl)amino]phenyl]-8-azabicyclo[3.2.1]octan-8-yl]acetyl]-4-piperidyl]pyrazol-4-yl]pyrazolo[1,5-a]pyrazin-4-yl]-2-pyridyl]-4-ethyl-N-isopropyl-piperidine-4-carboxamide] | ++++ (< 50 nM = ++++) | < 50 | < 30 | < 30 | < 100 | ++++ (< 30% = ++++) | ++++ (< 50 nM = ++++) | < 100 | – | – | – | –
CCOc1ccc(CN2[C@@H]3COC[C@H]2CN(c2ccc(-c4nc(-c5cnn([C@H]6CC[C@H](N7CCN(c8c(F)cc(NC9CCC(=O)NC9=O)cc8F)CC7)CC6)c5)cn5ncc(C#N)c45)cn2)C3)cn1 (mixture of isomers) [Compound 212, 6-[1-[4-[4-[4-[(2,6-dioxo-3-piperidyl)amino]-2,6-difluoro-phenyl]piperazin-1-yl]cyclohexyl]pyrazol-4-yl]-4-[6-[rac-(1R,5S)-9-[(6-ethoxy-3-pyridyl)methyl]-3-oxa-7,9-diazabicyclo[3.3.1]nonan-7-yl]-3-pyridyl]pyrazolo[1,5-a]pyrazine-3-carbonitrile] | – | – | – | < 30 | < 100 | – | – | – | ++++ (<50 nM = ++++) | < 30 | < 50 | +++ (<100 nM = +++)
CCC1(C(=O)NC(C)C)CCN(c2ncc(-c3nc(-c4cnn(C5CCN(C(=O)CC6(O)CCN(c7ccc(NC8CCC(=O)NC8=O)cc7F)CC6)CC5)c4)cn4ncc(C#N)c34)cc2F)CC1 (centres unmarked) [Compound 119, 1-(5-(3-cyano-6-(1-(1-(2-(1-(4-((2,6-dioxopiperidin-3-yl)amino)-2-fluorophenyl)-4-hydroxypiperidin-4-yl)acetyl)piperidin-4-yl)-1H-pyrazol-4-yl)pyrazolo[1,5-a]pyrazin-4-yl)-3-fluoropyridin-2-yl)-4-ethyl-N-isopropylpiperidine-4-carboxamide] | – | – | – | < 50 | < 100 | – | – | – | ++++ (<50 nM = ++++) | < 30 | < 50 | ++++ (<50 nM = ++++)
N#Cc1cnn2cc(-c3cnn(C4CCN(C(=O)CC5(O)CCN(c6ccc(NC7CCC(=O)NC7=O)cc6F)CC5)CC4)c3)nc(-c3ccc(N4CC5CC(C4)N5Cc4ccccc4)nc3)c12 (centres unmarked) [Compound 176, 4-(6-(6-benzyl-3,6-diazabicyclo[3.1.1]heptan-3-yl)pyridin-3-yl)-6-(1-(1-(2-(1-(4-((2,6-dioxopiperidin-3-yl)amino)-2-fluorophenyl)-4-hydroxypiperidin-4-yl)acetyl)piperidin-4-yl)-1H-pyrazol-4-yl)pyrazolo[1,5-a]pyrazine-3-carbonitrile] | – | – | – | < 30 | < 50 | – | – | – | ++++ (<50 nM = ++++) | < 30 | < 50 | ++++ (<50 nM = ++++)
CCC1(C(=O)NC2CCC2)CCN(c2ccc(-c3nc(-c4cnn([C@H]5CC[C@H](N6CCC(c7ccc(N[C@@H]8CCC(=O)NC8=O)cc7Cl)CC6)CC5)c4)cn4ncc(C#N)c34)cn2)CC1 (single isomer, unassigned) [Compound 131] | – | – | – | < 30 | < 50 | – | – | – | ++++ (<50 nM = ++++) | < 30 | < 50 | ++++ (<50 nM = ++++)
CCC1(C(=O)NC2CCC2)CCN(c2ccc(-c3nc(-c4cnn([C@H]5CC[C@H](N6CCN(c7c(F)cc(N[C@H]8CCC(=O)NC8=O)cc7F)CC6)CC5)c4)cn4ncc(C#N)c34)cn2)CC1 (single isomer, unassigned) [Compound 136] | – | – | – | < 30 | < 50 | – | – | – | ++++ (<50 nM = ++++) | < 30 | < 50 | ++++ (<50 nM = ++++)
N#Cc1cnn2cc(-c3cnn(C4CCN(C(=O)CC5(O)CCN(c6ccc(NC7CCC(=O)NC7=O)cc6F)CC5)CC4)c3)nc(-c3ccc(N4CCN(C(=O)C5CCCCC5)CC4)nc3)c12 (centres unmarked) [Compound 107, 4-[6-[4-(cyclohexanecarbonyl)piperazin-1-yl]-3-pyridyl]-6-[1-[1-[2-[1-[4-[(2,6-dioxo-3-piperidyl)amino]-2-fluoro-phenyl]-4-hydroxy-4-piperidyl]acetyl]-4-piperidyl]pyrazol-4-yl]pyrazolo[1,5-a]pyrazine-3-carbonitrile] | – | – | – | < 30 | < 100 | – | – | – | ++++ (<50 nM = ++++) | < 30 | < 50 | ++++ (<50 nM = ++++)
Cn1nc(N2CCC(=O)NC2=O)c2ccc(N3CCN([C@H]4CC[C@H](n5cc(-c6cn7ncc(C#N)c7c(-c7ccc(N8C[C@H]9COC[C@@H](C8)N9Cc8ccccn8)nc7)n6)cn5)CC4)CC3)c(F)c21 [Compound 208, 6-[1-[4-[4-[3-(2,4-dioxohexahydropyrimidin-1-yl)-7-fluoro-1-methyl-indazol-6-yl]piperazin-1-yl]cyclohexyl]pyrazol-4-yl]-4-[6-[(1S,5R)-9-(2-pyridylmethyl)-3-oxa-7,9-diazabicyclo[3.3.1]nonan-7-yl]-3-pyridyl]pyrazolo[1,5-a]pyrazine-3-carbonitrile] | – | – | – | < 30 | < 100 | – | – | – | ++++ (<50 nM = ++++) | < 30 | < 50 | ++++ (<50 nM = ++++)
CCC1(C(=O)Nc2ccccc2)CCN(c2ccc(-c3nc(-c4cnn(C5CCN(C(=O)CC6(O)CCN(c7ccc(NC8CCC(=O)NC8=O)cc7F)CC6)CC5)c4)cn4ncc(C#N)c34)cn2)CC1 (centres unmarked) [Compound 99, 1-[5-[3-cyano-6-[1-[1-[2-[1-[4-[(2,6-dioxo-3-piperidyl)amino]-2-fluoro-phenyl]-4-hydroxy-4-piperidyl]acetyl]-4-piperidyl]pyrazol-4-yl]pyrazolo[1,5-a]pyrazin-4-yl]-2-pyridyl]-4-ethyl-N-phenyl-piperidine-4-carboxamide] | – | – | – | < 30 | < 50 | – | – | – | ++++ (<50 nM = ++++) | < 30 | < 50 | ++++ (<50 nM = ++++)
N#Cc1cnn2cc(-c3cnn([C@H]4CC[C@H](N5CCC(c6ccc(N[C@@H]7CCC(=O)NC7=O)cc6F)CC5)CC4)c3)nc(-c3ccc(N4CCC5(CC4)OCc4cccnc45)nc3)c12 (relative stereo) [Compound 149, 6-[1-[4-[4-[2-fluoro-4-[[rac-(3R)-2,6-dioxo-3-piperidyl]amino]phenyl]-1-piperidyl]cyclohexyl]pyrazol-4-yl]-4-(6-spiro[5H-furo[3,4-b]pyridine-7,4′-piperidine]-1′-yl-3-pyridyl)pyrazolo[1,5-a]pyrazine-3-carbonitrile] | – | – | – | < 30 | < 50 | – | – | – | ++++ (<50 nM = ++++) | < 30 | < 50 | ++++ (<50 nM = ++++)
